Molecules are shown by their SMILES.

The subject of one series is Meniere's disease. The note with it: existing drug (diuretic drug); cited from earlier work.
A further series relates to mice. In words: acute toxicity, minimum lethal dose. The class given is in vivo. The note with it: male and female, orally or subcutaneously.
A further series concerns rats. In words: acute toxicity, minimum lethal dose. The series is classed as in vivo. The note with it: male and female, orally or subcutaneously.
Series [1] has as its system patients afflicted with Meniere's disease. In words: clinical pharmacological test in patients afflicted with Meniere's disease (Example 1). The note with it: 450 mg daily. The class given is in vivo. The procedure:
Pranlukast hydrate (trade name: onon capsule) was administered to 19 patients afflicted with Meniere's disease at a daily dose of 450 mg (two capsules each containing 112.5 mg individually after breakfast and after dinner) for the period of not less than three weeks (up to 24 weeks max.) to test and determine the efficacy. The overall efficacy (therapeutic) assessment was performed mainly on the basis of the results of nystagmus and hearing tests, while also taking into consideration the subjective symptoms (rotary vertigo, tinnitus, a feeling of fullness in ear, hearing rimpairment, etc.) and the extent or degree of hearing impairment (average hearing, method of quartering). In consequence of this, the efficacy was recognized and determined in 17(89.5%) out of 19 patients afflicted with Meniere's disease.

Series [2] has as its system patients suffering from acute low-tone sensorineural hearing loss. In words: clinical test in patients with acute low-tone sensorineural hearing loss (Example 2). The following applies: for Hearing in the sound ear 500 Hz: before administration 10 dB; for Hearing in the sound ear 250 Hz: before administration 15 dB; for Hearing in the sound ear Average hearing level: before administration 17 dB; for Hearing in the sound ear 125 Hz: before administration 25 dB; for Hearing in the affected ear 500 Hz: before administration 35 dB; for Hearing in the affected ear 125 Hz: before administration 40 dB; for Hearing in the affected ear Average hearing level: before administration 42 dB; for Hearing in the affected ear 250 Hz: before administration 50 dB. The class given is in vivo. On the procedure: Pranlukast hydrate (trade name: Onon capsule) was administered to the patients suffering from acute low-tone sensorineural hearing loss concurrently with a feeling of fullness in the left ear at a daily dose of 450 mg (two capsules each containing 112. 5 mg given individually after breakfast and dinner) for two months to investigate into the efficacy against hearing impairment, the major complaint. In connection to the above test, it is to be noted that selection of patients was performed in accordance with a draft of the Criteria for Diagnosis proposed by Study Group for Acute Severe Hearing Loss of the Ministry of Health, Labor and Welfare of Japan (refer to Audiology Japan., 45, 161-166 (2002)).

With `O[C@@H]1CO[C@H]2[C@@H]1OC[C@@H]2O` [isosorbide], the “efficacy against hearing impairment, tinnitus and a feeling of fullness in the ear” value in the series with Meniere's disease is “hardly been found to exhibit the efficacy”.
With `O=C(Nc1cccc2c(=O)cc(-c3nnn[nH]3)oc12)c1ccc(OCCCCc2ccccc2)cc1` [pranlukast hydrate, 4-oxo-8-[4-(4-phenylbutoxy)benzoylamino]-2-(tetrazol-5-yl)-4H-1-benzopyran ½ hydrate], in the series on mice, the minimum lethal dose entry is “not less than 2000 mg/kg”. For the same compound, the minimum lethal dose result in the series with rats is on record as “not less than 2000 mg/kg”. The “overall efficacy, patients in whom efficacy was recognized” value in series [1] (oral, not less than three weeks (up to 24 weeks), 17 out of 19 patients) is on record as 89.5%. Besides, in series [1] (6 out of 6 patients), the “effective rate in patients suffering from vertigo (rotary vertigo or stagger)” value was found to be 100%. Besides, in series [1] (15 out of 19 patients), the “efficacy in patients complaining of the subjective symptoms” value was found to be 78.9% and the “efficacy in patients suffering from hearing impairment” value is listed as 78.9%. Also, the “average hearing level recovered” value in series [2] (450 mg daily, after one month of administration, affected ear) was 19 dB. The “efficacy evaluation (healed/ameliorated/unchanged/worsened)” value in series [2] (450 mg daily, after two months of administration) is on record as “healing”. The “effect on subjective symptoms and hearing” value in series [2] (450 mg daily, within one week of administration) is reported as “tendency of amelioration”. In series [2] (after one month), the “Hearing in the sound ear 500 Hz” value is listed as 15 dB, the “Hearing in the sound ear 250 Hz” value was determined as 15 dB, the “Hearing in the sound ear Average hearing level” value is reported as 18 dB and the “Hearing in the sound ear 125 Hz” value is 25 dB. Besides, in series [2] (after one month), the “Hearing in the affected ear 500 Hz” value is given as 15 dB, the “Hearing in the affected ear 125 Hz” value was determined as 30 dB, the “Hearing in the affected ear Average hearing level” value was 23 dB and the “Hearing in the affected ear 250 Hz” value amounted to 25 dB. Further, in series [2] (after two months), the “Hearing in the sound ear 500 Hz” value is given as 10 dB, the “Hearing in the sound ear 250 Hz” value amounted to 15 dB, the “Hearing in the sound ear Average hearing level” value stood at 17 dB and the “Hearing in the sound ear 125 Hz” value is listed as 25 dB. Besides, in series [2] (after two months), the “Hearing in the affected ear 500 Hz” value was found to be 10 dB, the “Hearing in the affected ear 125 Hz” value was 25 dB, the “Hearing in the affected ear Average hearing level” value is reported as 18 dB and the “Hearing in the affected ear 250 Hz” value stood at 20 dB.
